Legend:
CD34+ cells = assay: Three-stage method with SR-1 or CH223191 in Stage 1 and Stage 2 media; type: cell-based; conditions: for effects on fold expansion, cell purity (CD56+CD3−), and cytotoxicity of K562 cells: 10 μM and 1 μM, K562 at 10:1 (E:T)
Protocol: CD34^+ cells are cultured in the following medium formulations for the indicated number of days, and aliquots of cells are taken for assessment of cell count, cell viability, characterization of natural killer cell differentiation and functional evaluation.
Stage 1 medium: 90% Stem Cell Growth Medium (SCGM) (CellGro®), 10% Human Serum-AB, supplemented with 4.5 U/mL low molecular weight heparin (LMWH), 25 ng/mL recombinant human thrombopoietin (TPO), 25 ng/mL recombinant human Flt3L, 27 ng/mL recombinant human stem cell factor (SCF), 25 ng/mL recombinant human IL-7, 0.05 ng/mL recombinant human IL-6 (500-fold), 0.25 ng/mL recombinant human granulocyte colony-stimulating factor (G-CSF) (50-fold), 0.01 ng/mL recombinant human granulocyte-macrophage colony-stimulating factor (GM-CSF) (500-fold), 0.10% gentamicin, and 1 to 10 μm StemRegenin-1 (SR-1).
Stage 2 medium: 90% SCGM, 10% Human Serum-AB, supplemented with 4.5 U/mL low molecular weight heparin (LMWH), 25 ng/mL recombinant human Flt3L, 27 ng/mL recombinant human SCF, 25 ng/mL recombinant human IL-7, 20 ng/mL recombinant human IL-15, 0.05 ng/mL recombinant human IL-6 (500-fold), 0.25 ng/mL recombinant human G-CSF (50-fold), 0.01 ng/mL recombinant human GM-CSF (500-fold), 0.10% gentamicin, and 1 to 10 μm SR1.
Stage 3 medium: 90% […]™, 10% Human Serum-AB, 0.025 mM 2-mercaptoethanol (55 mM), supplemented with 22 ng/mL recombinant human SCF, 1000 U/mL recombinant human IL-2, 20 ng/mL recombinant human IL-7, 20 ng/mL recombinant human IL-15, 0.05 ng/mL recombinant human IL-6 (500-fold), 0.25 ng/mL recombinant human G-CSF (50-fold), 0.01 ng/mL recombinant human GM-CSF (500-fold), and 0.10% gentamicin.
Stemregenin-1 (SR-1) was evaluated as a component of Stage 1 and Stage 2 media using the three-stage method outlined in Example 1, above, at concentrations of 1 μM, 10 μM, and 30 μM. The same concentrations of CH223191 in the three-stage method were also evaluated.

three-stage NK cells = assay: Varying third medium components, flow cytometry evaluation; type: cell-based; conditions: presence of SR1 in the third medium
Source text: A flow cytometry panel (Table 7) was utilized for evaluation on days 0, 7, 14, 21, 28, and 35, including cell surface markers CD56, CD3, CD117, CD94, IL1R1, CD11a, CD34, and CD14/CD15 and intracellular markers RORγt, AHR, and perforin.

Compound | effects on fold expansion, cell purity (CD56+CD3−), and cytotoxicity of K562 cells (CD34+ cells) | cytotoxicity of NK cells produced (CD34+ cells; SR-1 at 10 μM in Stage 1 and Stage 2 media vs 1 μM and 30 μM) | effect on NK (CD11a+) vs ILC3 (CD11a−) cell production (three-stage NK cells)
Cc1ccccc1/N=N/c1ccc(NC(=O)c2ccnn2C)c(C)c1 [CH223191, 1-methyl-N-(2-methyl-4-(2-(2-methylphenyl)diazenyl)phenyl)-1H-pyrazole-5-carboxamide] | Comparable effects |  | 
CC(C)n1cnc2c(NCCc3ccc(O)cc3)nc(-c3csc4ccccc34)nc21 [SR-1, 4-(2-(2-(benzo[b]thien-3-yl)-9-isopropyl-9H-purin-6-ylamino)ethyl)phenol] | Comparable effects | higher cytotoxicity than the other two concentrations tested | favor NK (CD11a+) cell production
